Source: ChEMBL document CHEMBL3797202, “Novel Oxindole Sulfonamides and Sulfamides: EPZ031686, the First Orally Bioavailable Small Molecule SMYD3 Inhibitor” (ACS Med Chem Lett, 2016)

How the values were obtained:
[1] = biological target: T1, Histone-lysine N-methyltransferase EHMT2 (Homo sapiens) (UniProt Q96KQ7); experiment: Inhibition of EHMT2 (unknown origin) at 10 uM relative to control
T1 sequence (whole entry): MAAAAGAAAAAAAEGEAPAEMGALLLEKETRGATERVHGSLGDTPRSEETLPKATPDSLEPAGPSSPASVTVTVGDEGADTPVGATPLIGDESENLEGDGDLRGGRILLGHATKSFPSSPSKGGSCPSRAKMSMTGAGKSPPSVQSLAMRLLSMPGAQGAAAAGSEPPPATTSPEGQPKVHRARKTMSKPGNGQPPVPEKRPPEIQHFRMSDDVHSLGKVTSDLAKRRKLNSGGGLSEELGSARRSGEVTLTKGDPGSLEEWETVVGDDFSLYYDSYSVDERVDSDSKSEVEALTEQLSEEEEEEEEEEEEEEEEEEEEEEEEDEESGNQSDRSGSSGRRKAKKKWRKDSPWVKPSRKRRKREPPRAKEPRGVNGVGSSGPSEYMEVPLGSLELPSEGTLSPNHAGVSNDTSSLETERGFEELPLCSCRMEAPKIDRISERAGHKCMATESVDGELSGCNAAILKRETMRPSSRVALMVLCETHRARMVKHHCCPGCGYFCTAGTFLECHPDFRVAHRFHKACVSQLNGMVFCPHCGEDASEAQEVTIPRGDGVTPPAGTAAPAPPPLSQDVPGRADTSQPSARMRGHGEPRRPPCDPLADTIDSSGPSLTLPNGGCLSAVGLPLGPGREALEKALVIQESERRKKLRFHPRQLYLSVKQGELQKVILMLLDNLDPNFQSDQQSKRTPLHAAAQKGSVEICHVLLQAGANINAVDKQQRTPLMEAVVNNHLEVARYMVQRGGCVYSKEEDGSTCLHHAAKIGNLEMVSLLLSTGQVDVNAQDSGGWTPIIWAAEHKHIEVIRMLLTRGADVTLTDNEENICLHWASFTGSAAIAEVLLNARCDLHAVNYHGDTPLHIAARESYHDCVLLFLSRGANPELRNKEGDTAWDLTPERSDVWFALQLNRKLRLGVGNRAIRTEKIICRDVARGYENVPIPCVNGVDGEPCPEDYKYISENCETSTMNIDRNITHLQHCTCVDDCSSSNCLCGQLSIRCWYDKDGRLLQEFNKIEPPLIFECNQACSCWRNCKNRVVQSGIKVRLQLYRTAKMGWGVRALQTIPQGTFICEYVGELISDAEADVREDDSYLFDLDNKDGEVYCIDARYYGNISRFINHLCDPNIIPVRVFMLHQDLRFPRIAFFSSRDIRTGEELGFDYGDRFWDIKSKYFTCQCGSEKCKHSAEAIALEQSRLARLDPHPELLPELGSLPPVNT

[2] = biological target: Histone-lysine N-methyltransferase EZH2 (Homo sapiens) (UniProt Q15910); experiment: Inhibition of EZH2 (unknown origin) at 10 uM relative to control
[3] = biological target: Histone-lysine N-methyltransferase PRDM9 (Homo sapiens) (UniProt Q9NQV7); experiment: Inhibition of PRDM9 (unknown origin) at 10 uM relative to control
[4] = biological target: T2, Histone-lysine N-methyltransferase SETD7 (Homo sapiens) (UniProt Q8WTS6); experiment: Inhibition of SETD7 (unknown origin) at 10 uM relative to control
T2 sequence (whole entry): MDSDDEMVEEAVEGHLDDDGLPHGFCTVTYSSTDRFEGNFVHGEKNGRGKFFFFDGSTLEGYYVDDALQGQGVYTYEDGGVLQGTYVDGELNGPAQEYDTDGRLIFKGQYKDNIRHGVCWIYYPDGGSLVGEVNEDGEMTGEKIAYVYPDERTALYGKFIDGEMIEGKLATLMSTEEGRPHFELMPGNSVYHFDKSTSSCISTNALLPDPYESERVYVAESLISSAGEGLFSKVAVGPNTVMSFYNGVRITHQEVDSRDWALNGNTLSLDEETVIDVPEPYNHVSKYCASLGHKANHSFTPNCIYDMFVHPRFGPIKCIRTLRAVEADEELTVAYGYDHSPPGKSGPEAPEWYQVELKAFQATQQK

[5] = biological target: T3, Histone-lysine N-methyltransferase NSD2 (Homo sapiens) (UniProt O96028); experiment: Inhibition of WHSC1 (unknown origin) at 10 uM relative to control
T3 sequence (whole entry): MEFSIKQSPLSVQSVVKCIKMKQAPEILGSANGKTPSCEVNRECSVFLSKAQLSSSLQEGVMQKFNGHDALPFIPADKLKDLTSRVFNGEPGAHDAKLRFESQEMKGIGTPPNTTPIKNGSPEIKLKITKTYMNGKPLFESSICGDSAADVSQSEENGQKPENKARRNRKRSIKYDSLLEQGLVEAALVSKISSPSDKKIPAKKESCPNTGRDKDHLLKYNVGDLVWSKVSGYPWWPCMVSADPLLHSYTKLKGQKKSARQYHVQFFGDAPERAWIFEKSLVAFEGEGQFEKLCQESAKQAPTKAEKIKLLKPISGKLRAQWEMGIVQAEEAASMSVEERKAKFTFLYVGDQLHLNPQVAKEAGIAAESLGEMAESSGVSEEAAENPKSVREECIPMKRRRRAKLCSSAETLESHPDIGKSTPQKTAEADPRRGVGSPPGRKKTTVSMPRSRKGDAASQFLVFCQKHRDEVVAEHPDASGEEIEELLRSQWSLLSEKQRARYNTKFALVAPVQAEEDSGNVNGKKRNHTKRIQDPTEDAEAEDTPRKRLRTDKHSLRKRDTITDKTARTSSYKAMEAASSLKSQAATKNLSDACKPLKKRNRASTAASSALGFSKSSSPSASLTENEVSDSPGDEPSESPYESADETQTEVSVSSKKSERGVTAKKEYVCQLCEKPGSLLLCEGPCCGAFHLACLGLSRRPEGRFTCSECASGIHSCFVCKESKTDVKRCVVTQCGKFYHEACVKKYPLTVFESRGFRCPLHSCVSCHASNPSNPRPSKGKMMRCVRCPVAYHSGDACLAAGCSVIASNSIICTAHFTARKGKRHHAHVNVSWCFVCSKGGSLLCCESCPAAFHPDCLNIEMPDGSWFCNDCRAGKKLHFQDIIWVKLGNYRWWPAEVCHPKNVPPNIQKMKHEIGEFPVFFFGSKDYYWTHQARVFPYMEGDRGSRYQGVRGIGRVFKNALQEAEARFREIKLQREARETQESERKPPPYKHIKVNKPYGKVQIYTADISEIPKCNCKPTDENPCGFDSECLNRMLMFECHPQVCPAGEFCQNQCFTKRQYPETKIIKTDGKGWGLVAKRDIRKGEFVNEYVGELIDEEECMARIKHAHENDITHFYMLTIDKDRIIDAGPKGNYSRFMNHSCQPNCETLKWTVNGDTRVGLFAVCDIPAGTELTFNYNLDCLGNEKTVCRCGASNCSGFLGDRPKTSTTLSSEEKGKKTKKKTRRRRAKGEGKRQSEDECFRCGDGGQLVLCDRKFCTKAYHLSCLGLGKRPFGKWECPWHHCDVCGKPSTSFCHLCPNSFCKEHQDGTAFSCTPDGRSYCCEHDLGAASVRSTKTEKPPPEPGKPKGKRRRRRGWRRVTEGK

Measured: inhibition

Chain of Histone-lysine N-methyltransferase EZH2 (Homo sapiens) (Q15910 whole entry, looked up): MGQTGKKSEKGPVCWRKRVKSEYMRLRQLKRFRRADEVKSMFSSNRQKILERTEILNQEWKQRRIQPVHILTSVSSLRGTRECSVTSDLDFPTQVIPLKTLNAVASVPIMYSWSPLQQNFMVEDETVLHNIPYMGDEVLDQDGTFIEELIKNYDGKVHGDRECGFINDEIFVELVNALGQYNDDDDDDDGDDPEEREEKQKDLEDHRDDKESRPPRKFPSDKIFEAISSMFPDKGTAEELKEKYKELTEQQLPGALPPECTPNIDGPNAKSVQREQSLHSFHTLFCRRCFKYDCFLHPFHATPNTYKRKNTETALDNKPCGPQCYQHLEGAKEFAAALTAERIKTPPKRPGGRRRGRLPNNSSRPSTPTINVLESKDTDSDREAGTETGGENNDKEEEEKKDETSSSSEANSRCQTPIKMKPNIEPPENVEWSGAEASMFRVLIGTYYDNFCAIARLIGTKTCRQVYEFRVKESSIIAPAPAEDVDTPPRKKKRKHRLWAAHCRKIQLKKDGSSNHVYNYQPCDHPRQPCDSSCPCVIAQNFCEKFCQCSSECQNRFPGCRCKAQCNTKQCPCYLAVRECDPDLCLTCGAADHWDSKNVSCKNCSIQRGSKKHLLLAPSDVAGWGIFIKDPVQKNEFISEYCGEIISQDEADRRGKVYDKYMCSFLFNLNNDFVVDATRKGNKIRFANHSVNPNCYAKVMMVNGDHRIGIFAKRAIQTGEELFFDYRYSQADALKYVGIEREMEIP
Chain of Histone-lysine N-methyltransferase PRDM9 (Homo sapiens) (Q9NQV7 whole entry): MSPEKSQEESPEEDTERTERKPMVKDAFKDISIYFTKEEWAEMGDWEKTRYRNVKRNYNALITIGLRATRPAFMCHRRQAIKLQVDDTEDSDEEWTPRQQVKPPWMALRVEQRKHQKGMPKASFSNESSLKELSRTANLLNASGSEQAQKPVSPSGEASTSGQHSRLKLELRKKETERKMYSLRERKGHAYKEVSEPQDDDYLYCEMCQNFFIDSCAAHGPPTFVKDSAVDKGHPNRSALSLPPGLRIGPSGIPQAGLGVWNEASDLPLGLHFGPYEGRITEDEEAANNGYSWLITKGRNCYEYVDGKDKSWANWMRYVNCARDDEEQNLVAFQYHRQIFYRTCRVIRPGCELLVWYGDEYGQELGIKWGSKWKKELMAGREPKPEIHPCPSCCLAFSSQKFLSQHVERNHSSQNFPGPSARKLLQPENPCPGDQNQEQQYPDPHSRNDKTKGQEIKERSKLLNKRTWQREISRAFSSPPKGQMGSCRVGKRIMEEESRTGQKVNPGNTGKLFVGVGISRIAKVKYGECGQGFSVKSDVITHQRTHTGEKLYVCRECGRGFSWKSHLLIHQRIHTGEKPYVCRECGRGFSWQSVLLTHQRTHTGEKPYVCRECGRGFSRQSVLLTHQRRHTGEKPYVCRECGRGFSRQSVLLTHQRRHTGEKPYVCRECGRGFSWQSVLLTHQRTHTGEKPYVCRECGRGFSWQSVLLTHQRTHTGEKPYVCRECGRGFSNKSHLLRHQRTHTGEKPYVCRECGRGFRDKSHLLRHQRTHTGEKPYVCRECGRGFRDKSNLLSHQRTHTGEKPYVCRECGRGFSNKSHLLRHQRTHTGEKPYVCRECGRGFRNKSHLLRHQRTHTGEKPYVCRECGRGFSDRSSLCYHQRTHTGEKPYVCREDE

O=C1Cc2cc(C(=O)N[C@H]3C[C@H]4CC[C@@H](C3)N4S(=O)(=O)N3CCC(NCc4ccccc4)CC3)c(Cl)cc2N1
< 30%: all assays above

O=C1Cc2cc(C(=O)N[C@H]3C[C@H]4CC[C@@H](C3)N4S(=O)(=O)CC3CCN(CCCC(F)(F)F)CC3)c(Cl)cc2N1
< 30%: all assays above
